Measurements reported in patent US9023789B2, “Amylin analogs and pharmaceutical compositions thereof” (Novo Nordisk A/S, priority 2012, dated 2015).
In brackets after ≈: the same amount, converted by molar mass. Like-named read-outs stand apart in the source and are kept apart here. Numbered stars: 1 amine (or outer) side, 2 acyl side, 3 side chain; on linkers, the order of the positions; unused ones are H or OH. Bridge positions count the residues as written; N and C are the ends. Side chains are listed from the residue outwards. Peptide text beside a SMILES is read from it. * marks the point of attachment. C20 diacid = O=C(O)CCCCCCCCCCCCCCCCCCC(=O)*; γGlu = O=C(O)[C@H](CCC(=O)[*:2])N[*:1]; AEEA = NCCOCCOCC(=O)O

Assays:
[1] = biological target: T1, human amylin 3(a) receptor (human calcitonin receptor + RAMP-3) in BHK570 cells (Homo sapiens, UniProt O60896+P30988); assay: ASSAY (II)a functional assay, human amylin receptor (CRE luciferase); type: cell-based; settings: for EC50: human amylin receptor functional potency, assay (II), read-out: hAmylin-R funct. EC50
T1 construct: expressed in transfected cells
Outline: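 BHK CRE-luc cells, calcitonin (a) receptor ± RAMP-3 (amylin 3(a)); overnight seeding, 37° C/5% CO2. 3 h ligand exposure, DMEM/10% FBS/10 mM Hepes pH 7.4. LucLite 30 min RT; luminescence (SPC).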

[2] = ASSAY (IV) determination of solubility; type: physicochemical
Outline: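 Polypeptide stock in water ([…]) was mixed 1:1 with 100 mM buffers: glycylglycine at pH 3.0, 4.0, 5.0 and bistrispropane at pH 6.0, 6.5, 7.0, 7.5, 8.0. After 18 hours at room temperature, samples were centrifuged and polypeptide concentration measured by UPLC.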

[3] = biological target: T2, human amylin receptor (membranes from Amylin 3(a)/CRE-luc cells) (Homo sapiens, UniProt O60896+P30988); assay: ASSAY (V) binding to the human amylin receptor (SPA, 125I-rat amylin); settings: for IC50: Table 4, read-out: hAmylin-R bind IC50;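 on all read-outs here: competition binding of cell membranes (35 ng/µL) mixed with SPA beads in 384-well plates at 40 µL total volume, read by scintillation counting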
T2 construct: expressed in transfected cells
T2 sequence (P30988 25-474): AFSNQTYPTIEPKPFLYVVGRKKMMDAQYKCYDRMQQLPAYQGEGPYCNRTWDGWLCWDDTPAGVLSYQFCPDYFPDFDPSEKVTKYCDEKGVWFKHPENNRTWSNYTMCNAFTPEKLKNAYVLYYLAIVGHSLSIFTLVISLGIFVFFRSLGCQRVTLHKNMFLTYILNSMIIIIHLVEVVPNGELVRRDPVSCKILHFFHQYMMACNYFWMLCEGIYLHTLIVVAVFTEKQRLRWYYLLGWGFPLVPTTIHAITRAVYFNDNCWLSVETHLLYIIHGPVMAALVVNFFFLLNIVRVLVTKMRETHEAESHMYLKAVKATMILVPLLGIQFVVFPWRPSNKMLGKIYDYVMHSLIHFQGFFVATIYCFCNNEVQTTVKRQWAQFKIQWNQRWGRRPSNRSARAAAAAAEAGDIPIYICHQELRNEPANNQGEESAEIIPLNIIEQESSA
T2 sequence (O60896 24-148 partner): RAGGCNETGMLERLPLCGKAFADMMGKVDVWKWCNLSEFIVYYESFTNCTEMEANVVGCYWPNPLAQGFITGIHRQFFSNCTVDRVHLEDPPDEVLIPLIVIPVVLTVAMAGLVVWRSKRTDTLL

[4] = biological target: T3, rat amylin receptor (rat calcitonin receptor + rat RAMP 3) (Rattus norvegicus, UniProt P32214+Q9JJ73); assay: ASSAY (VI) binding to the rat amylin receptor; settings: for IC50: binding to rat amylin receptor, read-out: rAmylin-R bind IC50
T3 construct: expressed in transfected cells; host or cells: BHK tk'ts 13 (transient, FuGENE 6), membranes
T3 sequence (P32214 25-479 isoform P32214-2 limits assumed): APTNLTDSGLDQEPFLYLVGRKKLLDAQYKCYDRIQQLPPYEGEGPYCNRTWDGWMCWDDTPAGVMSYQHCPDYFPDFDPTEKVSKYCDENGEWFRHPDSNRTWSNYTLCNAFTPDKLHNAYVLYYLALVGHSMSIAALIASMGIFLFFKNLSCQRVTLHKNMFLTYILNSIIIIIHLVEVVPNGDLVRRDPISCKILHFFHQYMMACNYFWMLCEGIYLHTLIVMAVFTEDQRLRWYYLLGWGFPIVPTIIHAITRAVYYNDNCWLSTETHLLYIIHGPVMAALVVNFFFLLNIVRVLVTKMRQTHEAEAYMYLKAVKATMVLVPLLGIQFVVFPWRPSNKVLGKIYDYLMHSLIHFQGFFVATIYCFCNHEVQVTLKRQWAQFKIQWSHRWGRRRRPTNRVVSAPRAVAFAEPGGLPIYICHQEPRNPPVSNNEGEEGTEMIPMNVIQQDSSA
T3 sequence (Q9JJ73 23-147 partner): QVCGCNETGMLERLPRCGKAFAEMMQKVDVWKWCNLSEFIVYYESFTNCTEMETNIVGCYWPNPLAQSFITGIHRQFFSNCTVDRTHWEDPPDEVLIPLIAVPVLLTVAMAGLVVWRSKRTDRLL
Outline: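 This assay measured binding to the rat amylin receptor. BHK tk′ts 13 cells were transiently transfected with the rat calcitonin receptor using FuGENE® 6 (Roche), following the manufacturer's recommendations. About 48 hours after transfection, the cells were harvested and membranes were prepared from them for the binding determination.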

[5] = biological target: T4, rat calcitonin receptor (Rattus norvegicus, UniProt P32214); assay: ASSAY (VIII) binding to the rat calcitonin receptor; settings: Table 7, read-out: rCTR bind IC50
T4 construct: expressed in transfected cells; host or cells: BHK tk'ts 13 (transient, FuGENE 6), membranes
T4 sequence (P32214 25-479 isoform P32214-2 limits assumed): T3 sequence (P32214 25-479 isoform P32214-2 limits assumed)
Outline: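 Transfect BHK tk′ts 13 cells transiently with rat calcitonin receptor, culture in DMEM containing 10% FBS, collect cells about 48 hours later, then prepare membranes.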

[6] = hCTR funct. EC50 over hAmylin-R funct. EC50
[7] = human functional selectivity: hCTR funct. EC50 / hAmylin-R funct. EC50
[8] = bistrispropane buffer, pH 6.5, read-out: Solubility pH 6.5 Concentration
[9] = bistrispropane buffer, pH 7.5, read-out: Solubility pH 7.5 Concentration
[10] = bistrispropane buffer, pH 6.0, read-out: Solubility pH 6.0 Concentration
[11] = bistrispropane buffer, pH 7.0, read-out: Solubility pH 7.0 Concentration
[12] = bistrispropane buffer, pH 8.0, read-out: Solubility pH 8.0 Concentration
[13] = glycylglycine buffer, pH 3.0, read-out: Solubility pH 3.0 Concentration
[14] = glycylglycine buffer, pH 4.0, read-out: Solubility pH 4.0 Concentration
[15] = glycylglycine buffer, pH 5.0, read-out: Solubility pH 5.0 Concentration
[16] = Table 5, selectivity, hCTR bind IC50 / hAmylin-R bind IC50
[17] = Table 5a, selectivity, hCTR bind IC50 / hAmylin-R bind IC50
[18] = Table 5b, selectivity, hCTR bind IC50 / hAmylin-R bind IC50
[19] = Table 5c, selectivity, hCTR bind IC50 / hAmylin-R bind IC50
[20] = Table 7, human binding selectivity, included for comparison
[21] = Table 7a (preferred compounds), human binding selectivity, included for comparison
[22] = ratio of human calcitonin receptor binding IC50 to human amylin receptor binding IC50
[23] = Table 7, rat binding selectivity, rCTR IC50 / rAmylin-R IC50
[24] = Table 7a (preferred compounds), rat binding selectivity, rCTR IC50 / rAmylin-R IC50
[25] = ratio of rCTR bind IC50 to rAmylin-R bind IC50

CC(C)C[C@H](NC(=O)[C@H](CCCNC(=N)N)NC(=O)[C@H](CCC(N)=O)NC(=O)[C@@H](NC(=O)[C@H](C)NC(=O)[C@@H]1CSSC[C@H](NC(=O)[C@@H](N)CCCCNC(=O)CC[C@H](NC(=O)CC[C@H](NC(=O)CCCCCCCCCCCCCCCCCCC(=O)O)C(=O)O)C(=O)O)C(=O)N[C@@H](CC(N)=O)C(=O)N[C@@H]([C@@H](C)O)C(=O)N[C@@H](C)C(=O)N[C@@H]([C@@H](C)O)C(=O)N1)[C@@H](C)O)C(=O)N[C@@H](C)C(=O)N[C@@H](CC(=O)O)C(=O)N[C@@H](Cc1ccccc1)C(=O)N[C@@H](CC(C)C)C(=O)N[C@@H](CCCNC(=N)N)C(=O)N[C@@H](Cc1c[nH]cn1)C(=O)N[C@@H](CO)C(=O)N[C@@H](CO)C(=O)N1CCC[C@H]1C(=O)N[C@@H](CC(N)=O)C(=O)N[C@@H](Cc1ccccc1)C(=O)NCC(=O)N[C@@H](C)C(=O)N1CCC[C@H]1C(=O)N[C@@H](CC(C)C)C(=O)N[C@@H](CO)C(=O)N[C@@H](CO)C(=O)N[C@H](C(=O)N[C@@H](CC(N)=O)C(=O)N[C@H](C(=O)NCC(=O)N[C@@H](CO)C(=O)N[C@@H](CC(=O)O)C(=O)N[C@H](C(=O)N[C@@H](Cc1ccc(O)cc1)C(N)=O)[C@@H](C)O)C(C)C)[C@@H](C)O [Example 1] (H-K([γGlu-γGlu-C20 diacid])CNTATCATQRLADFLRHSSPNFGAPLSSTNVGSDTY-NH2; disulfide 2-7)
Ratio hCT/hAmylin funct. [1, 6]: 12.0
EC50 [1]: 0.224 nM
Ratio hCT/hAmylin funct. [1, 7]: 12.0
solubility at 18 h [2, 8]: ≥ 200 µM
solubility at 18 h [2, 9]: ≥ 200 µM
solubility at 18 h [2, 10]: ≥ 200 µM
solubility at 18 h [2, 11]: ≥ 200 µM
solubility at 18 h [2, 12]: ≥ 200 µM
solubility at 18 h [2, 13]: ≥ 200 µM
solubility at 18 h [2, 14]: ≥ 200 µM
solubility at 18 h [2, 15]: 172 µM (≈ 776 µg/mL)
IC50 [3]: 1.18 nM
Ratio hCT/hAmylin binding [3, 16]: 27.6
Ratio hCT/hAmylin binding [3, 17]: 27.6
Ratio hCT/hAmylin binding [3, 18]: 27.6
Ratio hCT/hAmylin binding [3, 19]: 27.6
Ratio hCT/hAmylin binding [3, 20]: 27.6
Ratio hCT/hAmylin binding [3, 21]: 27.6
Ratio hCT/hAmylin binding [3, 22]: 27.6
IC50 ([4]; Table 7): 1.3 nM
Ratio rCT/rAmylin binding [4, 23]: 103.9
Ratio rCT/rAmylin binding [4, 24]: 103.9
Ratio rCT/rAmylin binding [4, 25]: 103.9
IC50 [5]: 135 nM

CC[C@H](C)[C@H](NC(=O)[C@H](C)NC(=O)CNC(=O)[C@H](Cc1ccccc1)NC(=O)[C@H](CC(N)=O)NC(=O)[C@@H]1CCCN1C(=O)[C@H](CO)NC(=O)[C@H](CO)NC(=O)[C@H](Cc1c[nH]cn1)NC(=O)[C@H](CCCNC(=N)N)NC(=O)[C@H](CC(C)C)NC(=O)[C@H](Cc1ccccc1)NC(=O)[C@H](CCCNC(=N)N)NC(=O)[C@H](C)NC(=O)[C@H](CC(C)C)NC(=O)[C@H](CCCNC(=N)N)NC(=O)[C@H](CCC(N)=O)NC(=O)[C@@H](NC(=O)[C@H](C)NC(=O)[C@@H]1CSSC[C@H](NC(=O)[C@@H](N)CCCCNC(=O)COCCOCCNC(=O)CC[C@H](NC(=O)CCCCCCCCCCCCCCCCCCC(=O)O)C(=O)O)C(=O)N[C@@H](CC(N)=O)C(=O)N[C@@H]([C@@H](C)O)C(=O)N[C@@H](C)C(=O)N[C@@H]([C@@H](C)O)C(=O)N1)[C@@H](C)O)C(=O)N1CCC[C@H]1C(=O)N[C@@H](CO)C(=O)N[C@@H](CO)C(=O)N[C@H](C(=O)N[C@@H](CC(N)=O)C(=O)N[C@H](C(=O)NCC(=O)N[C@@H](CO)C(=O)N[C@@H](CC(N)=O)C(=O)N[C@H](C(=O)N[C@@H](Cc1ccc(O)cc1)C(N)=O)[C@@H](C)O)C(C)C)[C@@H](C)O [Example 82] (H-K([AEEA-γGlu-C20 diacid])CNTATCATQRLARFLRHSSPNFGAIPSSTNVGSNTY-NH2; disulfide 2-7; N-terminus assumed)
Ratio hCT/hAmylin funct. ([1]; hCTR funct. EC50 divided by hAmylin-R funct. EC50): 59.2
Ratio hCT/hAmylin funct. [1, 6]: 59.2
EC50 [1]: 0.215 nM
Ratio hCT/hAmylin funct. [1, 7]: 59.2
solubility at 18 h [2, 8]: ≥ 200 µM
solubility at 18 h [2, 9]: ≥ 200 µM
solubility at 18 h [2, 10]: ≥ 200 µM
solubility at 18 h [2, 11]: ≥ 200 µM
solubility at 18 h [2, 12]: ≥ 200 µM
solubility at 18 h [2, 13]: ≥ 200 µM
solubility at 18 h [2, 14]: ≥ 200 µM
solubility at 18 h [2, 15]: ≥ 200 µM
IC50 [3]: 0.636 nM
Ratio hCT/hAmylin binding [3, 16]: 139.6
Ratio hCT/hAmylin binding [3, 17]: 139.6
Ratio hCT/hAmylin binding [3, 18]: 139.6
Ratio hCT/hAmylin binding [3, 19]: 139.6
Ratio hCT/hAmylin binding [3, 20]: 139.6
Ratio hCT/hAmylin binding [3, 21]: 139.6
Ratio hCT/hAmylin binding [3, 22]: 139.6
IC50 ([4]; Table 7): 1.64 nM
Ratio rCT/rAmylin binding [4, 23]: 87.0
Ratio rCT/rAmylin binding [4, 24]: 87.0
Ratio rCT/rAmylin binding [4, 25]: 87.0
IC50 [5]: 143 nM
